# Measured values taken from patent US9382306B2, “Octapeptide compounds derived from somatostatin and the therapeutic use thereof” (IPSEN PHARMA S.A.S., priority 2008, dated 2016).
# Values joined by “and” are separate entries in the source; they are usually repeats but may differ in a detail not shown here. Equal entries are not always repeated. Bridge positions count the residues as written; N and C are the ends. Square brackets hold non-standard residues; d marks the D form. Peptide text beside a SMILES is read from it. ξ: configuration not given here. dPhe(3-F) = N[C@H](Cc1cccc(F)c1)C(=O)O; dPhe(4-F) = N[C@H](Cc1ccc(F)cc1)C(=O)O; d2Nal = N[C@H](Cc1ccc2ccccc2c1)C(=O)O; dPhe(2-F) = N[C@H](Cc1ccccc1F)C(=O)O; d(hPhe) = N[C@H](CCc1ccccc1)C(=O)O; Thr(3ξ) = CC(O)[C@H](N)C(=O)O
# How the values were obtained:
# [1] = Self-assembly study: putting peptides in solution in water, macroscopic, ATR-FTIR, TEM and SAXS analysis; type: physicochemical; conditions: 3 to 15% by mass of peptide in water; form and diameter of the self-assembled structure, or soluble / insoluble
# Text: The procedure used comprises three stages: putting the peptides in solution and macroscopic analysis; spectroscopic and microscopic analyses of the structures formed and by small-angle X-ray scattering (SAXS) analyses.
# The first stage of the characterization of the derivatives is the production of a range of concentrations from 3 to 15% by mass of peptide in water. Gelling of the solution indicates the presence of self-assembled structures which can be nanotubes but can also be fibres or other self-organised structures.
# The object of this stage is to verify the presence of self-assembled structures, to characterize their self-assembly and to visualize them by microscopy.
# Infrared spectroscopy makes it possible to obtain information on the method of stacking the peptides in the self-assemblies. The amide band spectrum, reflecting the absorption spectra of the carbonyl functions of the peptide backbone, gives information on the type of hydrogen bond in which these groups are involved (H bonds leading to the formation of the […], a helix or also a loop or random conformation) and consequently on the secondary and tertiary structure of the peptides in solution and self-assembled. The attenuated total reflection technique (ATR-FTIR) uses a crystal on which the solid or liquid sample is deposited. The infrared light is guided through this crystal at an angle which allows it to be reflected several times inside the crystal, which increases the sensitivity of the technique. Due to the performance of this device, it is then possible perform measurements on relatively dilute solutions. The beam penetrates a few microns into the sample deposited on the crystal, which means that only the molecules/structures which are deposited on the surface of the crystal are analyzed. Moreover, this technique is non-destructive.
# The assembled structures are then visualized by transmission electron microscopy (TEM). This very powerful technique, allowing magnifications greater than 500,000 times, is one of the few techniques capable of visualizing structures on the nanometric scale. The sample is subjected to an electron beam. The visualization of the transmitted beam is produced either by a photoluminescent screen, or by a CCD camera. The sample in the microscope being under vacuum, it is samples dried after staining with uranyl salts in order to increase contrast which are observed.
# The peptide in solution is firstly deposited on a copper grid covered with a film of carbon. After deposition of the materiel, the excess liquid is eliminated. In the same way, the solution of colorant, in our case uranyl acetate, is deposited on the grid, the excess is eliminated and the grid is dried in the open air. It can then be introduced into the microscope.
# The samples, liquids or gels, are introduced into a capillary column and subjected to a monochromatic flow of X-rays. The intensity diffused is measured as a function of the scattering angle with respect to the incident angle.
# The diffusion patterns thus obtained must be the subject of a correlation with a close theoretical model of the structures present in the sample. In the case where the peptides have self-assembled in the form of hollow nanotubes, the modelling of the experimental data with the theoretical diffusion produced by infinitely long hollow columns makes it possible to determine with precision the diameter of the columns and to estimate their wall thickness (Valery et al. in Biophysical journal, 2004, 86(4), 2484-2501 and Proc. Natl. Acad. Sci., 2003, 100(18) 10258-10262). For polydisperse, nanotubular, fibrilar, micellar or lamellar self-assemblies, it is the correlation of the spectroscopic, microscopic and XR scattering data which makes it possible to estimate a size range for the objects observed.
# [2] = target: T1, somatostatin receptors sub-type 5 (Homo sapiens, UniProt P35346); assay: Affinity for somatostatin receptors: inhibition of [125I-Tyr11]SRIF-14 binding to membranes of transfected CHO-K1 cells; conditions: competitive inhibition of [125I-Tyr11]SRIF-14 binding, 37° C.
# T1 construct: expressed in transfected cells; membrane preparations
# Protocol: (§1) The affinity of the compounds of the invention for the somatostatin receptors is determined by measurement of the inhibition of the bond of [125I-Tyr11]SRIF-14 to membrane preparations of transfected CHO-K1 cells.
# (§2) The CHO-K1 cells expressing in a stable fashion each of the sub-types of somatostatin receptors are collected with 0.5 mM of EDTA and centrifuged at 500 g for 5 minutes at 4° C. The pellet is re-suspended in phosphate buffer (PBS) and centrifuged at 500 g for 5 minutes at 4° C. The pellet is re-suspended in Tris 50 mM buffer at pH 7.4 and centrifuged at 500 g for 5 minutes at 4° C. The cells are lyzed by sonication and centrifuged at 39,000 g for 10 minutes. The pellet is re-suspended in Tris 50 mM buffer at pH 7.4, an aliquot is removed for assaying the proteins and the remainder is centrifuged at 50,000 g for 10 minutes. The membranes obtained in this last pellet are stored at −80° C.
# (§3) Measurement of the competitive inhibition of the bond of [125I-Tyr11]SRIF-14 (Perkin Elmer) on each of the sub-types of somatostatin receptors is carried out in duplicate in 96-well polypropylene plates. The cell membranes (5 to 20 µg of proteins/well) are incubated with [125I-Tyr11]SRIF-14 (0.05 to 0.1 nM) for 50 to 90 minutes at 37° C. (conditions dependent on the sub-type of receptor) in a HEPES buffer medium 50 mM pH 7.4, comprising 0.2% bovine serum albumin (BSA), MgCl2 5 mM, Trasylol 200 KIU/mL, Bacitracin 0.02 mg/mL, phenylmethylsulphonyl fluoride 0.02 mg/mL.
# (§4) The bound [125I-Tyr11]SRIF-14 is separated from the free [125I-Tyr11]SRIF-14 by filtration through GF/C glass fibre plates (Unifilter, Perkin Elmer) pre-impregnated with 0.1% polyethylenimine (P.E.I.), using a Filtermate 96 (Perkin Elmer). The filters are washed with Tris-HCl buffer 50 mM, pH 7.4 at 4° C. and the radioactivity present is determined using a counter (TopCount, Perkin Elmer).
# (§5) The data are analyzed by computer-assisted non-linear regression using XLfit 4.2 (IDBS) software.
# [3] = target: T2, somatostatin receptors sub-type 2 (Homo sapiens, UniProt P30874); assay: as above; conditions: competitive inhibition of [125I-Tyr11]SRIF-14 binding, 37° C.
# T2 construct: expressed in transfected cells; membrane preparations
# Protocol: as §1, §2, §3, §4, §5
# [4] = Solubility study before preparative HPLC; type: physicochemical; conditions: water-acetonitrile mixture 58:42; water-acetonitrile solution 58:42
# Text: The peptide must be dissolved in a water-acetonitrile mixture in order be injected into the preparative HPLC. A solubility study is first carried out on a small quantity. It allows the optimum percentage of acetonitrile and the maximum quantity of peptide to be established. The lowest possible percentage of acetonitrile with a very high concentration of peptide and a resultant clear solution constitute ideal conditions. By way of example, the solubility of the 4-para-fluorophenylalanine derivative (Example 13 hereafter) was established at 49 g l^−1 in a water-acetonitrile solution 58:42.
# T1 sequence (P35346 whole entry): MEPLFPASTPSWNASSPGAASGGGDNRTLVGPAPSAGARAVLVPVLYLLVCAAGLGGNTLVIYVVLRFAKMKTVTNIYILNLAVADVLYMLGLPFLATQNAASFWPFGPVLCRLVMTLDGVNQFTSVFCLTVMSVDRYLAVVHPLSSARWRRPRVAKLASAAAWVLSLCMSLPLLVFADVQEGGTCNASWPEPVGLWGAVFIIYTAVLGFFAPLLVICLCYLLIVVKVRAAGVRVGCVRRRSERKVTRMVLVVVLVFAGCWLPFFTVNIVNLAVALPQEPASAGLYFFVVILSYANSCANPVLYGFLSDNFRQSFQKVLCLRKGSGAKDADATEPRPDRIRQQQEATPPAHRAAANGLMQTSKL
# T2 sequence (P30874 whole entry): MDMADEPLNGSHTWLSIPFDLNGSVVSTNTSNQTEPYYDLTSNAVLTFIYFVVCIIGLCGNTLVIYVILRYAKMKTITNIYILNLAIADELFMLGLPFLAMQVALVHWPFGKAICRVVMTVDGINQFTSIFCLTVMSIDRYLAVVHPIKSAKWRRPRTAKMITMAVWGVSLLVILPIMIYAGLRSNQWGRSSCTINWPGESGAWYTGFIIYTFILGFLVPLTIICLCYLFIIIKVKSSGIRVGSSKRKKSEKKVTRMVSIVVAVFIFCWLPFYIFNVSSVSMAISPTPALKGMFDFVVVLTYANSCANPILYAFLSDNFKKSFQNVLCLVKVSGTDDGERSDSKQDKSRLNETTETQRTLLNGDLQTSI
SMILES,Assembly [1],Ki [2] [nM],Ki [3] [nM],solubility [4] [mg/mL]
"CC(C)[C@@H]1NC(=O)[C@H](CCCCN)NC(=O)[C@@H](Cc2ccc(F)cc2)NC(=O)[C@H](Cc2ccc(O)cc2)NC(=O)[C@@H](NC(=O)[C@H](N)Cc2ccc3ccccc3c2)CSSC[C@@H](C(=O)N[C@H](C(N)=O)C(C)O)NC1=O (stereo partly drawn) [Example 13, H-D-2-Nal^1-cyclo(Cys^2-Tyr^3-p-F-D-Phe^4-Lys^5-Val^6-Cys^7)-Thr^8-NH2.2 CH3COOH] (H-[d2Nal]CY[dPhe(4-F)]KVC[Thr(3ξ)]-NH2; disulfide 2-7)",monodisperse peptide nanotubes and 17 nm monodisperse nanotube,≤ 1000,≤ 5,49
"CC(C)[C@@H]1NC(=O)[C@H](CCCCN)NC(=O)[C@@H](Cc2ccccc2F)NC(=O)[C@H](Cc2ccc(O)cc2)NC(=O)[C@@H](NC(=O)[C@H](N)Cc2ccc3ccccc3c2)CSSC[C@@H](C(=O)N[C@H](C(N)=O)C(C)O)NC1=O (stereo partly drawn) [Example 16, H-D-2-Nal^1-cyclo(Cys^2-Tyr^3-o-F-D-Phe^4-Lys^5-Val^6-Cys^7)-Thr^8-NH2.2 CH3COOH] (H-[d2Nal]CY[dPhe(2-F)]KVC[Thr(3ξ)]-NH2; disulfide 2-7)",monodisperse peptide nanotubes and 17 nm monodisperse nanotube,≤ 1000,≤ 5,–
"CC(C)[C@@H]1NC(=O)[C@H](CCCCN)NC(=O)[C@@H](CC2CCCCC2)NC(=O)[C@H](Cc2ccc(O)cc2)NC(=O)[C@@H](NC(=O)[C@H](N)Cc2ccc3ccccc3c2)CSSC[C@@H](C(=O)N[C@H](C(N)=O)[C@@H](C)O)NC1=O [Example 24, H-D-2-Nal^1-cyclo(Cys^2-Tyr^3-cyclohexyl-D-Ala^4-Lys^5-Val^6-Cys^7)-Thr^8-NH2.2 CH3COOH]",fibres,≤ 100,≤ 5,–
"CC(C)[C@@H]1NC(=O)[C@H](CCCCN)NC(=O)[C@@H](Cc2cccs2)NC(=O)[C@H](Cc2ccc(O)cc2)NC(=O)[C@@H](NC(=O)[C@H](N)Cc2ccc3ccccc3c2)CSSC[C@@H](C(=O)N[C@H](C(N)=O)C(C)O)NC1=O (stereo partly drawn) [Example 2, H-D-2-Nal^1-cyclo(Cys^2-Tyr^3-β-(2-thienyl)-D-Ala^4-Lys^5-Val^6-Cys^7)-Thr^8-NH2.2 CH3COOH]",monodisperse peptide nanotubes and 12 nm monodisperse nanotube,≤ 1000,≤ 50,–
"CC(C)[C@@H]1NC(=O)[C@H](CCCCN)NC(=O)[C@@H](Cc2ccc(-c3ccccc3)cc2)NC(=O)[C@H](Cc2ccc(O)cc2)NC(=O)[C@@H](NC(=O)[C@H](N)Cc2ccc3ccccc3c2)CSSC[C@@H](C(=O)N[C@H](C(N)=O)C(C)O)NC1=O (stereo partly drawn) [Example 21, H-D-2-Nal^1-cyclo(Cys^2-Tyr^3-p-Ph-D-Phe^4-Lys^5-Val^6-Cys^7)-Thr^8-NH2.2 CH3COOH]",insoluble,≤ 100,≤ 50,–
"CC(C)[C@@H]1NC(=O)[C@H](CCCCN)NC(=O)[C@@H](Cc2csc3ccccc23)NC(=O)[C@H](Cc2ccc(O)cc2)NC(=O)[C@@H](NC(=O)[C@H](N)Cc2ccc3ccccc3c2)CSSC[C@@H](C(=O)N[C@H](C(N)=O)C(C)O)NC1=O (stereo partly drawn) [Example 1, H-D-2-Nal^1-cyclo(Cys^2-Tyr^3-β-(3-benzothienyl)-D-Ala^4-Lys^5-Val^6-Cys^7)-Thr^8-NH2.2 CH3COOH]",monodisperse peptide nanotubes and 20 nm monodisperse nanotube,≤ 100,≤ 5,–
"CC(C)[C@@H]1NC(=O)[C@H](CCCCN)NC(=O)[C@@H](CCc2ccccc2)NC(=O)[C@H](Cc2ccc(O)cc2)NC(=O)[C@@H](NC(=O)[C@H](N)Cc2ccc3ccccc3c2)CSSC[C@@H](C(=O)N[C@H](C(N)=O)C(C)O)NC1=O (stereo partly drawn) [Example 11, H-D-2-Nal^1-cyclo(Cys^2-Tyr^3-D-Homophe^4-Lys^5-Val^6Cys^7)-Thr^8-NH2.2 CH3COOH] (H-[d2Nal]CY[d(hPhe)]KVC[Thr(3ξ)]-NH2; disulfide 2-7)",soluble,≤ 1000,≤ 50,–
"CC(C)[C@@H]1NC(=O)[C@H](CCCCN)NC(=O)[C@@H](c2ccccc2)NC(=O)[C@H](Cc2ccc(O)cc2)NC(=O)[C@@H](NC(=O)[C@H](N)Cc2ccc3ccccc3c2)CSSC[C@@H](C(=O)N[C@H](C(N)=O)C(C)O)NC1=O (stereo partly drawn) [Example 10, H-D-2-Nal^1-cyclo(Cys^2-Tyr^3-D-Phg^4-Lys^5-Val^6-Cys^7)-Thr^8-NH2.2 CH3COOH]",self-assembled fibres,≤ 5000,≤ 700,–
"CC(C)[C@@H]1NC(=O)[C@H](CCCCN)NC(=O)[C@@H](Cc2cccc(F)c2)NC(=O)[C@H](Cc2ccc(O)cc2)NC(=O)[C@@H](NC(=O)[C@H](N)Cc2ccc3ccccc3c2)CSSC[C@@H](C(=O)N[C@H](C(N)=O)C(C)O)NC1=O (stereo partly drawn) [Example 15, H-D-2-Nal^1-cyclo(Cys^2-Tyr^3-m-F-D-Phe^4-Lys^5-Val^6-Cys^7)-Thr^8-NH2.2 CH3COOH] (H-[d2Nal]CY[dPhe(3-F)]KVC[Thr(3ξ)]-NH2; disulfide 2-7)",monodisperse peptide nanotubes and 15.6 nm monodisperse nanotube,≤ 100,≤ 5,–
"CC(C)[C@@H]1NC(=O)[C@H](CCCCN)NC(=O)[C@@H](Cc2c3ccccc3cc3ccccc23)NC(=O)[C@H](Cc2ccc(O)cc2)NC(=O)[C@@H](NC(=O)[C@H](N)Cc2ccc3ccccc3c2)CSSC[C@@H](C(=O)N[C@H](C(N)=O)C(C)O)NC1=O (stereo partly drawn) [Example 8, H-D-2-Nal^1-cyclo(Cys^2Tyr^3-β-(9-anthryl)-D-Ala^4-Lys^5-Val^6Cys^7)-Thr^8-NH2.2 CH3COOH]",insoluble,≤ 100,≤ 50,–
